In PubChem BioAssay (NCI):
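Dose response: 5 concentrations. Exposure: 48 h. Format: 96-well plates. Endpoint: linear interpolation; highest concentration if not reached. TGI: concentration producing complete growth inhibition.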

Key:
Assay in all cases: DTP human tumour cell line panel, 48 h
786-0 renal = tested on: 786-0 renal
A498 renal = tested on: A498 renal
A549 NSCLC = tested on: A549 NSCLC
ACHN renal = tested on: ACHN renal
CAKI-1 renal = tested on: CAKI-1 renal
CCRF-CEM leukemia = tested on: CCRF-CEM leukemia
COLO 205 colon = tested on: COLO 205 colon
DLD-1 colon = tested on: DLD-1 colon
DMS 114 small cell lung = tested on: DMS 114 small cell lung
DMS 273 small cell lung = tested on: DMS 273 small cell lung
EKVX NSCLC = tested on: EKVX NSCLC
HCC-2998 colon = tested on: HCC-2998 colon
HCT-116 colon = tested on: HCT-116 colon
HCT-15 colon = tested on: HCT-15 colon
HL-60(TB) leukemia = tested on: HL-60(TB) leukemia
HOP-62 NSCLC = tested on: HOP-62 NSCLC
HOP-92 NSCLC = tested on: HOP-92 NSCLC
HT29 colon = tested on: HT29 colon
IGROV1 ovarian = tested on: IGROV1 ovarian
K-562 leukemia = tested on: K-562 leukemia
KM12 colon = tested on: KM12 colon
KM20L2 colon = tested on: KM20L2 colon
LOX IMVI melanoma = tested on: LOX IMVI melanoma
LXFL 529 NSCLC = tested on: LXFL 529 NSCLC
M14 melanoma = tested on: M14 melanoma
M19-MEL melanoma = tested on: M19-MEL melanoma
MALME-3M melanoma = tested on: MALME-3M melanoma
NCI-H226 lung = tested on: NCI-H226 lung
NCI-H23 lung = tested on: NCI-H23 lung
NCI-H460 lung = tested on: NCI-H460 lung
NCI-H522 lung = tested on: NCI-H522 lung
OVCAR-3 ovarian = tested on: OVCAR-3 ovarian
OVCAR-4 ovarian = tested on: OVCAR-4 ovarian
OVCAR-5 ovarian = tested on: OVCAR-5 ovarian
OVCAR-8 ovarian = tested on: OVCAR-8 ovarian
RPMI-8226 leukemia = tested on: RPMI-8226 leukemia
RXF 393 renal = tested on: RXF 393 renal
RXF-631 renal = tested on: RXF-631 renal
SF-268 CNS = tested on: SF-268 CNS
SF-295 CNS = tested on: SF-295 CNS
SF-539 CNS = tested on: SF-539 CNS
SK-MEL-28 melanoma = tested on: SK-MEL-28 melanoma
SK-MEL-5 melanoma = tested on: SK-MEL-5 melanoma
SK-OV-3 ovarian = tested on: SK-OV-3 ovarian
SN12C renal = tested on: SN12C renal
SNB-19 CNS = tested on: SNB-19 CNS
SNB-75 CNS = tested on: SNB-75 CNS
SNB-78 CNS = tested on: SNB-78 CNS
SW-620 colon = tested on: SW-620 colon
TK-10 renal = tested on: TK-10 renal
U251 CNS = tested on: U251 CNS
UACC-257 melanoma = tested on: UACC-257 melanoma
UACC-62 melanoma = tested on: UACC-62 melanoma
UO-31 renal = tested on: UO-31 renal
XF 498 CNS = tested on: XF 498 CNS
MOLT-4 leukemia = tested on: MOLT-4 leukemia
SK-MEL-2 melanoma = tested on: SK-MEL-2 melanoma
SR leukemia = tested on: SR leukemia
HOP-18 NSCLC = tested on: HOP-18 NSCLC

Measured: TGI

C[N+](C)(C)C1CC([N+](C)(C)C)C2c3ccccc3C21 (stereo unspecified)
> 100 µM: 786-0 renal | A498 renal | A549 NSCLC | ACHN renal | CAKI-1 renal | CCRF-CEM leukemia | COLO 205 colon | DLD-1 colon | DMS 114 small cell lung | DMS 273 small cell lung | EKVX NSCLC | HCC-2998 colon | HCT-116 colon | HCT-15 colon | HL-60(TB) leukemia | HOP-62 NSCLC | HOP-92 NSCLC | HT29 colon | IGROV1 ovarian | K-562 leukemia | KM12 colon | KM20L2 colon | LOX IMVI melanoma | LXFL 529 NSCLC | M14 melanoma | M19-MEL melanoma | MALME-3M melanoma | NCI-H226 lung | NCI-H23 lung | NCI-H460 lung | NCI-H522 lung | OVCAR-3 ovarian | OVCAR-4 ovarian | OVCAR-5 ovarian | OVCAR-8 ovarian | RPMI-8226 leukemia | RXF 393 renal | RXF-631 renal | SF-268 CNS | SF-295 CNS | SF-539 CNS | SK-MEL-28 melanoma | SK-MEL-5 melanoma | SK-OV-3 ovarian | SN12C renal | SNB-19 CNS | SNB-75 CNS | SNB-78 CNS | SW-620 colon | TK-10 renal | U251 CNS | UACC-257 melanoma | UACC-62 melanoma | UO-31 renal | XF 498 CNS

C1=CC=C2NCCc3cccc(c3)CCNC3=CC=CC=CC3=NCCCCCCN=C2C=C1
29.8 µM: M14 melanoma
38.8 µM: COLO 205 colon
24.8 µM: KM20L2 colon
20.9 µM: HL-60(TB) leukemia
> 100 µM: A549 NSCLC | ACHN renal | CAKI-1 renal | CCRF-CEM leukemia | DLD-1 colon | EKVX NSCLC | HT29 colon | IGROV1 ovarian | K-562 leukemia | MALME-3M melanoma | SF-268 CNS | SN12C renal | SNB-19 CNS | SNB-78 CNS | U251 CNS
26.9 µM: LOX IMVI melanoma
47.3 µM: KM12 colon
82.4 µM: SR leukemia
31.1 µM: RPMI-8226 leukemia
21.9 µM: DMS 273 small cell lung
61.6 µM: OVCAR-8 ovarian
34.4 µM: HOP-62 NSCLC
49.6 µM: SF-295 CNS
38.3 µM: MOLT-4 leukemia
26.1 µM: DMS 114 small cell lung
54 µM: HOP-92 NSCLC
50.7 µM: UACC-62 melanoma
89.1 µM: UO-31 renal
80.7 µM: SW-620 colon
70.6 µM: SK-OV-3 ovarian
47.2 µM: NCI-H522 lung
56.3 µM: HCT-15 colon
99 µM: OVCAR-3 ovarian
25.3 µM: NCI-H460 lung
23.5 µM: SF-539 CNS
41.8 µM: UACC-257 melanoma
23.6 µM: LXFL 529 NSCLC
79.8 µM: SK-MEL-2 melanoma
28 µM: RXF-631 renal
48.3 µM: NCI-H23 lung
49.9 µM: SNB-75 CNS
47.8 µM: OVCAR-5 ovarian
86 µM: NCI-H226 lung
39 µM: OVCAR-4 ovarian
30.3 µM: M19-MEL melanoma
32.4 µM: RXF 393 renal

C#CC(C)(C)OCCCCOc1cc(O)c2c(=O)c3ccccc3n(C)c2c1
> 100 µM: 786-0 renal | A498 renal | A549 NSCLC | ACHN renal | CAKI-1 renal | CCRF-CEM leukemia | DLD-1 colon | DMS 114 small cell lung | DMS 273 small cell lung | EKVX NSCLC | HCC-2998 colon | HCT-116 colon | HCT-15 colon | HL-60(TB) leukemia | HOP-18 NSCLC | HOP-62 NSCLC | HOP-92 NSCLC | IGROV1 ovarian | K-562 leukemia | KM12 colon | KM20L2 colon | LOX IMVI melanoma | LXFL 529 NSCLC | M14 melanoma | M19-MEL melanoma | MALME-3M melanoma | NCI-H226 lung | NCI-H23 lung | NCI-H460 lung | NCI-H522 lung | OVCAR-3 ovarian | OVCAR-4 ovarian | OVCAR-5 ovarian | OVCAR-8 ovarian | RPMI-8226 leukemia | RXF 393 renal | SF-268 CNS | SF-295 CNS | SF-539 CNS | SK-MEL-2 melanoma | SK-MEL-28 melanoma | SK-MEL-5 melanoma | SK-OV-3 ovarian | SN12C renal | SNB-19 CNS | SNB-75 CNS | SNB-78 CNS | SR leukemia | SW-620 colon | TK-10 renal | U251 CNS | UACC-257 melanoma | UACC-62 melanoma | UO-31 renal | XF 498 CNS
80.4 µM: COLO 205 colon
45.7 µM: HT29 colon

CNS(=O)(=O)NNS(=O)(=O)c1ccc(F)cc1
> 100 µM: 786-0 renal | A498 renal | A549 NSCLC | ACHN renal | CAKI-1 renal | CCRF-CEM leukemia | COLO 205 colon | DLD-1 colon | DMS 114 small cell lung | DMS 273 small cell lung | EKVX NSCLC | HCT-116 colon | HCT-15 colon | HL-60(TB) leukemia | HOP-62 NSCLC | HT29 colon | IGROV1 ovarian | K-562 leukemia | KM12 colon | KM20L2 colon | LOX IMVI melanoma | LXFL 529 NSCLC | M14 melanoma | M19-MEL melanoma | MOLT-4 leukemia | NCI-H226 lung | NCI-H23 lung | NCI-H460 lung | NCI-H522 lung | OVCAR-3 ovarian | OVCAR-4 ovarian | OVCAR-8 ovarian | RPMI-8226 leukemia | RXF 393 renal | RXF-631 renal | SF-268 CNS | SF-295 CNS | SF-539 CNS | SK-MEL-2 melanoma | SK-MEL-5 melanoma | SNB-19 CNS | SNB-75 CNS | SR leukemia | SW-620 colon | U251 CNS | UACC-257 melanoma | UACC-62 melanoma | UO-31 renal | XF 498 CNS
